The results in this text go back to PMC10269622, “Blapstin, a Diapause-Specific Peptide-Like Peptide from the Chinese Medicinal Beetle Blaps rhynchopetera, Has Antifungal Function” (Microbiology Spectrum, 2023).

Bridge positions count the residues as written; N and C are the ends. Ends that are not written are not given here.

For one series, the system named is C. albicans. The experiment in a line: Thermostability of antifungal activity (paper disk assay). Format: physicochemical, Candida albicans. As to conditions: for Antifungal activity after heating: 20 μL of 225 μM, then paper disk assay on YM medium, 37°C, 18 h. Here is the method:
(i) Effects of temperature. In the test of thermostability of antifungal activity, (20 μL(225 μM) of blapstin was heated at different temperatures (20°C, 40°C, 60°C, 80°C, 90°C, and 100°C) for 30 min and cooled down at 4°C ([63]). Colistin E was used as the positive control, and 1.5% NaCl was used as the negative control. Then, these samples were transferred to the paper disks in the YM solid medium with C. albicans and incubated at 37°C for 18 h for the assay of antifungal activity.

In another series the test system is T. rubrum. The experiment in a line: Cryo-SEM membrane morphology. Format: cell-based, Trichophyton rubrum. As to conditions: 1× MIC.
Series [1] has as its system established biofilms of C. albicans ATCC 10231. Kind of series: Biofilm eradication assay (crystal violet). Format: cell-based, Candida albicans. As to conditions: 24 h preformed biofilm, 0.5× to 8× MIC, 37°C, absorbance at 600 nm. On the procedure: First, 100 μL of C. albicans ATCC 10231 suspension (1 × 10^6 CFU/mL) was added to each well of a sterile 96-well plate. The plate was incubated at 37°C for 24 h to make the biofilm adhere to the walls and washed three times with PBS. Next, 100 μL of serial dilutions of blapstin (0.5×, 1×, 2×, 4×, and 8× MIC) prepared using YM medium was added to the plate, followed by incubation at 37°C for 24 h. Fluconazole at 10 μM and clotrimazole at 10 μΜ were used as a positive control, and sterile 0.9% NaCl was used as a negative control. After incubation, the liquid in the plate was discarded and washed three times with PBS, followed by the addition of 1% crystal violet solution to each well and incubation at room temperature for 10 min. Finally, the plate was washed three times with PBS, and 100 μL of 95% ethanol was added per well. The percentage of biofilm removal was estimated by measuring the absorbance at 600 nm.

For a further series, the system named is C. albicans ATCC 10231. The experiment in a line: Intracellular ROS burst, H2DCFDA probe. The class given is cell-based, Candida albicans. As to conditions: 1×, 8×, 32× MIC, 37°C, 30 min. On the procedure:
H2DCFDA is a cell-permeable probe for detecting intracellular ROS ([72]). C. albicans ATCC 10231 was cultured in YM medium to logarithmic stage in a constant-temperature shaking machine at 37°C, centrifuged at 1,000 × g for 5 min to remove the supernatant, and washed with normal saline three times, and then the fungal solution was diluted to an OD600 of 0.1. Different concentrations of blapstin (1× MIC, 8× MIC, 32× MIC) were added to diluted fungal suspension and incubated at 37°C for 30 min. H2O2 at 0.1 mM was used as the positive control, and 0.9% NaCl was used as the negative control. After incubation, the suspension was centrifuged at 1,000 × g for 5 min to discard the supernatant and leave the thallus precipitation. The H2DCFDA dye was dissolved with DMSO and diluted with 0.9% NaCl containing 15% DMSO to achieve a final concentration of 10 μM. The thallus precipitation was mixed with 1 mL of a […] H2DCFDA working solution to each tube, incubated at 37°C for 30 min, and then centrifuged at 1,000 × g for 5 min to remove the supernatant. […] One milliliter of 0.9% NaCl was added to each tube and analyzed with a multifunctional fluorescent enzyme labeling instrument (SynergyH1; Biotek, USA). The excitation/emission wavelengths were set at […], and the ROS burst was monitored. The experiment was repeated three times, with three biological replicates at a time.

For the sequence “VRVGPCDQVCSRTNPEKDECCRAHGHSGHSSCYGGRMNCYG (disulfide 6-21, 10-32, 20-39 (inferred)) [Blapstin]”, the “Antifungal activity after heating” value with C. albicans (20°C to 90°C for 30 min) was “full antifungal activity was retained”; in the series with C. albicans (100°C for 30 min), “slightly reduced”. For the same sequence, the “Thermostable up to” value in the series on C. albicans (heated 30 min, read-out antifungal activity toward C. albicans) is “up to 90 °C”. For the same sequence, the “Membrane morphology under cryo-SEM” value in the series with T. rubrum is “membrane shrinkage and disruption of the plasma membrane”. For the same sequence, the “Eradication of established biofilms of C. albicans” value in series [1] is “disrupted established biofilms”. The “Change in ROS fluorescence in C. albicans” value in the series on C. albicans ATCC 10231 was “increased”.
